Assay [1] deals with Plasmodium falciparum. Description: ST_JUDE: Plasmodium falciparum 3D7 EC50 (uM) as measured by SYBR green dye. It counts as functional, organism-based.
The subject of assay [2] is Plasmodium falciparum. The assay is described as follows: ST_JUDE: Plasmodium falciparum K1 EC50 (uM) as measured by SYBR green dye. It counts as functional, organism-based.

Structures are written as SMILES.

For the compound `Cc1ccc(NC(=O)CSc2nncc(O)n2)cc1`, the EC50 was found to be 4880 nM in assay [1] and 924 nM in assay [2].

On to `CCCCc1ccc(NC(=O)CSc2nc3c(c(=O)n2C)SC(C)C3)cc1` (configuration not stated), for which the EC50 in assay [1] is 2930 nM; in assay [2], 2050 nM.

With `CCCCCC(O)(c1ccccc1)C(CN1CCOCC1)c1ccccc1` (configuration not stated), the EC50 was 3260 nM in assay [1] and 2040 nM in assay [2].

For `CCOC(=O)c1cnc2ccc(OC)cc2c1NCc1ccccc1`, the EC50 in assay [1] was 2770 nM; in assay [2] it was over 15000 nM.

Regarding `COc1cc(Br)c(C2C(C#N)=C(N)Oc3cc(O)ccc32)cc1OC` (configuration not stated), the EC50 was over 15000 nM in assay [1] and 5800 nM in assay [2].

Take `CCOc1ccccc1NC(=O)C(C)Oc1cccc(Br)c1` (configuration not stated): the EC50 in assay [1] and in assay [2] was over 15000 nM each time.

With `COc1ccc(N/C=C2/C(=O)N(c3ccc(OC)cc3)C(=O)c3ccccc32)cc1`, the half-maximal effective concentration (EC50) in assay [1] and in assay [2] was over 15000 nM throughout.

In the case of `COc1ccc(OC)c(/C=N/Nc2nc3ccccc3[nH]2)c1`, the concentration giving a half-maximal response (EC50) in assay [1] was 3640 nM; in assay [2], over 15000 nM.

Turning to `COc1ccc(O)c(CN2CCN(Cc3ccc(C)cc3)CC2)c1`, the figures for the EC50 in assay [1] and in assay [2] were 1620 nM and 988 nM, respectively.

For `CO/C(O)=C1\C(C)=NC2=C(C(=O)CC(c3ccccc3OC)C2)C1c1ccc([N+](=O)[O-])cc1` (configuration not stated), the EC50 in assay [1] was 3830 nM; in assay [2] it was over 15000 nM.

Consider `CCC1(C)CC(CCN)(c2ccc(C)cc2)CCO1` (configuration not stated), for which the figures for the EC50 in assay [1] and in assay [2] were 4800 nM and over 15000 nM, respectively.

On to `Oc1ccc(Br)c2c1NC(c1ccc(Cl)cc1)C1CC=CC21` (configuration not stated), for which the EC50 in assay [1] was 3890 nM; in assay [2], 1570 nM.

Turning to `O=C(Nc1ccc(N2CCCCC2)c(Cl)c1)c1ccc(F)cc1`, the EC50 was over 15000 nM in assay [1] and 801 nM in assay [2].

`CCc1ccc(NC(=O)C2c3ccccc3C(=O)N(C3CCCC3)C2c2cccs2)cc1` (configuration not stated): the results for the EC50 in assay [1] and in assay [2] were 1830 nM and 1870 nM, respectively.

Turning to `CC(C)Cc1ccc(S(=O)(=O)N2c3ccccc3CC2C)cc1` (configuration not stated), the EC50 in assay [1] and in assay [2] was over 15000 nM in each case.

Regarding `COc1ccc(-c2cn3c(n2)sc2cc(C(=O)NCCCN4CCN(C)CC4)ccc23)cc1`, the EC50 in assay [1] is 2040 nM; in assay [2], 6140 nM.

With `CCOCc1cc(CN2CCN(CCC(C)C)C(CCO)C2)ccc1OC` (configuration not stated), the EC50 in assay [1] and in assay [2] was over 15000 nM throughout.

For `CC(=O)N(C1=C(N(C)C)C(=O)c2ccccc2C1=O)c1ccc(I)cc1`, the EC50 in assay [1] was found to be 31.5 nM; in assay [2], 45.8 nM.

For `CCN(CC)c1ccc(/C=C/C(=O)NCCN2CCC(N(C)C3CCCCC3C)CC2)cc1` (configuration not stated), the EC50 is 2290 nM in assay [1] and over 15000 nM in assay [2].

For the compound `O=C(O)c1ccc(S(=O)(=O)NC2=C/C(=N\S(=O)(=O)c3ccccc3)C(=O)c3ccccc32)cc1`, the EC50 in assay [1] and in assay [2] was over 15000 nM each time.

For the compound `O=C(O)c1cccc(NC2=C(n3nnc4ccccc43)C(=O)c3ccccc3C2=O)c1`, the EC50 in assay [1] is over 15000 nM; in assay [2], 4190 nM.

As to `CCC(C(=O)NCc1ccccc1Cl)n1c2ccccc2c2nc(=O)cc(C)n21` (configuration not stated), the EC50 in assay [1] and in assay [2] was over 15000 nM throughout.

Regarding `Oc1c(Cl)cc(Cl)cc1CN1CCN(c2ccccc2F)CC1`, the EC50 was 1850 nM in assay [1] and 861 nM in assay [2].

`CC[N+](C)(CC)CCCOc1ccc2c(c1)C(=O)c1cc(OCCC[N+](C)(CC)CC)ccc1-2`: the EC50 in assay [1] was 655 nM; in assay [2], 413 nM.

`CCOc1ccc(NC2=C/C(=N/S(=O)(=O)c3ccc(OC)cc3)c3ccccc3C2=O)cc1`: the EC50 in assay [1] came out at 352 nM; in assay [2], 155 nM.

As for `CC(=O)Nc1ccc(Nc2c3ccccc3nc3ccccc23)cc1`, the figures for the EC50 in assay [1] and in assay [2] were 2690 nM and 1370 nM, respectively.

On to `CC(=O)Oc1ccc(Cl)cc1/C=C/c1cc(OC(C)=O)c2ccccc2n1`, for which the results for the EC50 in assay [1] and in assay [2] were over 15000 nM and 1500 nM, respectively.

On to `COc1cc(/C=C(\C#N)c2nc3ccccc3[nH]2)cc(Br)c1OCC#N`, for which the EC50 in assay [1] and in assay [2] was over 15000 nM each time.

For `O=C(CN(Cc1ccc(F)cc1)S(=O)(=O)c1ccc(Cl)cc1)Nc1ccccc1Cl`, the EC50 in assay [1] was over 15000 nM; in assay [2] it was 1460 nM.

For `COc1ccccc1CCN1C(=O)CCC1CCNCCOc1ccccc1` (configuration not stated), the EC50 in assay [1] and in assay [2] was over 15000 nM in each case.

In the case of `O=C(Nc1cccc(Cl)c1)c1cc2ccccc2cc1O`, the EC50 in assay [1] was over 15000 nM; in assay [2] it was 568 nM.

As to `OCCN1CCN(c2nc(Nc3ccc(F)cc3)c3cnn(-c4ccccc4)c3n2)CC1`, the EC50 in assay [1] was 1210 nM; in assay [2], 1380 nM.

With `CCCCNC(=S)NCCc1c(C)[nH]c2ccccc12`, the EC50 in assay [1] and in assay [2] was over 15000 nM each time.

For the compound `Cc1ccccc1NC(=O)C1c2ccccc2C(=O)N2CCc3ccccc3C12` (configuration not stated), the EC50 in assay [1] is 4150 nM; in assay [2] it was over 15000 nM.

As for `COc1ccc(S(=O)(=O)/N=C2/C=C(Sc3nc[nH]n3)C(=O)c3ccccc32)cc1`, the values for the EC50 in assay [1] and in assay [2] were 1940 nM and 2340 nM, respectively.

In the case of `CCN(CC)CC(O)COc1ccccc1C(=O)CCc1ccccc1` (configuration not stated), the EC50 in assay [1] was 2170 nM; in assay [2] it was 1080 nM.

In the case of `COc1cc(SC)ccc1C(=O)N1CCCC(C)C1` (configuration not stated), the figures for the EC50 in assay [1] and in assay [2] were 9810 nM and over 15000 nM, respectively.

For `CCc1ccc(C(Nc2ccccn2)c2ccc3cccnc3c2O)cc1` (configuration not stated), the figures for the EC50 in assay [1] and in assay [2] were 2310 nM and 2720 nM, respectively.

Regarding `CSc1cccc(NC(=O)Cn2c(C)c(C=O)c3ccccc32)c1`, the values for the EC50 in assay [1] and in assay [2] were 4560 nM and 4290 nM, respectively.

On to `CO/C(O)=C1\C(C)=NC2=C(C(=O)CC(c3ccccc3OC)C2)C1c1ccc(OC)c(OC)c1` (configuration not stated), for which the EC50 in assay [1] and in assay [2] was over 15000 nM in each case.

Take `COc1ccc(CN2CCN(Cc3ccccc3)CC2)c(O)c1`: the EC50 in assay [1] was 1090 nM; in assay [2], 754 nM.

With `O=C(COc1ccc(Cl)cc1)N1CCN(Cc2cccc([N+](=O)[O-])c2)CC1`, the EC50 in assay [1] and in assay [2] was over 15000 nM throughout.

Regarding `CCCCOc1ccc(S(=O)(=O)Nc2ccc(Nc3nc(C)cc(N4CCCC4)n3)cc2)cc1`, the EC50 was 1410 nM in assay [1] and over 15000 nM in assay [2].

In the case of `O=C(c1cccs1)N(Cc1cccnc1)c1nc2c(Cl)cccc2s1`, the values for the EC50 in assay [1] and in assay [2] were over 15000 nM and 3840 nM, respectively.

For `C=C(C)CCC(C)N1CCC(n2nccc2NC(=O)Nc2ccccc2Cl)CC1` (configuration not stated), the EC50 in assay [1] was 3700 nM; in assay [2], over 15000 nM.

As to `CCCO/C(O)=C1\C(C)=NC2=C(C(=O)CC(c3ccccc3)C2)C1c1cc(Cl)c(O)c(OC)c1` (configuration not stated), the EC50 in assay [1] worked out at 3350 nM; in assay [2], 2880 nM.

Take `CCN1C=CC(=Cc2ccc3cc(C)ccc3[n+]2C)C=C1`: the EC50 is 265 nM in assay [1] and 106 nM in assay [2].

`Cc1ccc(N2C(=O)CS(=O)(=O)C23C(=O)N(Cc2ccccc2Cl)c2ccccc23)cc1C` (configuration not stated): the figures for the EC50 in assay [1] and in assay [2] were 1330 nM and 2430 nM, respectively.

Turning to `Cc1ccccc1CN1C(=O)CSc2ccc(C(=O)NCCC(C)C)cc21`, the EC50 in assay [1] and in assay [2] was over 15000 nM in each case.

As for `CCN(CC)c1ccc(CNC(C)C(O)c2ccccc2)cc1` (configuration not stated), the figures for the EC50 in assay [1] and in assay [2] were 4100 nM and 980 nM, respectively.

With `CC(=O)OCCCCCCCCCCC[N+]1(C)CCCCC1`, the 50% effective concentration (EC50) in assay [1] was over 15000 nM; in assay [2] it was 5480 nM.

In the case of `COc1ccccc1NC(=O)CN1CCN(C(=O)c2ccco2)CC1`, the results for the EC50 in assay [1] and in assay [2] were 2840 nM and 4840 nM, respectively.

As for `C=C(C)CNc1nncc(-c2ccccc2C)n1`, the EC50 in assay [1] and in assay [2] was over 15000 nM throughout.

With `CCCCOCCCN1C(=O)CSC1c1cnccc1-c1ccc(Br)cc1` (configuration not stated), the figures for the EC50 in assay [1] and in assay [2] were 2380 nM and 1760 nM, respectively.

Turning to `c1ccc(CN2CCN(c3nc(N(c4ccccc4)c4ccccc4)nc(-n4ccnc4)n3)CC2)cc1`, the EC50 was 2460 nM in assay [1] and 1810 nM in assay [2].

Regarding `COc1ccccc1C(=O)Nc1nnc(Cc2nc3ccccc3[nH]2)s1`, the EC50 in assay [1] and in assay [2] was over 15000 nM each time.

Take `CCC(C)c1ccc(NC(=O)c2cc(Br)ccc2OC)c(O)c1` (configuration not stated): the figures for the EC50 in assay [1] and in assay [2] were 6050 nM and 2110 nM, respectively.

Turning to `O=C(O)c1ccc(CN2C(=O)c3ccccc3C2=O)cc1`, the EC50 in assay [1] and in assay [2] was over 15000 nM throughout.

For the compound `COc1cc(/C=C/c2ccc3cccc(OC(C)=O)c3n2)cc(Cl)c1OC`, the EC50 in assay [1] was over 15000 nM; in assay [2], 6110 nM.

As for `Cc1cc(Nc2ccc(F)c(Cl)c2)n2nc(C)nc2n1`, the values for the EC50 in assay [1] and in assay [2] were 3200 nM and 9170 nM, respectively.

Consider `COc1ccccc1/C=C/CN1CCC(C(Cc2ccccc2)N(C)C(=O)c2cc(C)nn2C)CC1` (configuration not stated), for which the EC50 in assay [1] and in assay [2] was over 15000 nM in each case.

`CCN1/C(=C/c2cccc[n+]2C)Sc2ccc(C)cc21`: the EC50 in assay [1] is 738 nM; in assay [2], 436 nM.

For `CCCOCc1cc(CN2CCN(c3cccc(Cl)c3)CC2)c(O)c2ncccc12`, the EC50 came to 1100 nM in assay [1] and 896 nM in assay [2].

On to `CCOC(=O)c1cccc(NC(=O)CC2C(=O)N(c3ccc(F)cc3)C(=O)N2C2CCCC2)c1` (configuration not stated), for which the results for the EC50 in assay [1] and in assay [2] were 344 nM and 984 nM, respectively.

Take `Oc1c(C(Nc2ccccn2)c2c(F)cccc2Cl)cc(Cl)c2cccnc12` (configuration not stated): the EC50 in assay [1] and in assay [2] was over 15000 nM each time.

For `Cc1ccc(-n2nc(C)c3c(C)c(CCC(=O)Nc4ccc5[nH]c(-c6cccnc6)nc5c4)c(C)nc32)cc1C`, the results for the EC50 in assay [1] and in assay [2] were 798 nM and 1040 nM, respectively.

On to `CC(=O)NC1=C(Cl)C(=O)c2ccccc2C1=O`, for which the figures for the EC50 in assay [1] and in assay [2] were 4040 nM and 2210 nM, respectively.

In the case of `CCc1cccc2c(C#N)cn(CCOc3ccccc3Cl)c12`, the EC50 stood at 516 nM in assay [1] and 577 nM in assay [2].

For `Cc1cccc(/C=C2/Sc3ccc(C(=O)NCCN4CCN(c5cc(Cl)ccc5C)CC4)cc3N(C)C2=O)c1`, the EC50 in assay [1] is 985 nM; in assay [2], 965 nM.

As to `CCN(CC)CCNC(=O)c1ccc(Cn2c(SCc3ccccc3C)nc3ccncc32)cc1`, the EC50 in assay [1] is 6740 nM; in assay [2], over 15000 nM.

Consider `CCOC(=O)c1c(CN(CC)CC)n(-c2ccccc2)c2cc(Br)c(O)cc12`, for which the half-maximal effective concentration (EC50) came to 1780 nM in assay [1] and 3450 nM in assay [2].

The term EC50 denotes the midpoint of the concentration-response curve.
